In PubChem BioAssay AID1259411 (Chemical Carcinogenesis Research Information System (CCRIS), 2018):
Calls of active or inactive are those of the source. The rule behind the calls is not given here.

System: rodent carcinogenicity bioassays, tumor incidence
Assay: CCRIS carcinogenicity studies
Procedure, shortened: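 Archive of carcinogenicity, mutagenicity, tumor promotion and tumor inhibition results drawn from journals, NCI reports and other sources, expert-reviewed; covers 1985-2011 and is no longer updated.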

For CC(C)C/C=N/N(C)C=O, the carcinogen call (Species: MOUSE, Strain/Sex: SWISS/FEMALE, Route: GAVAGE, Dose: 0, 50 UG/G BW DISSOLVED IN PROPYLENE GLYCOL 1/WK FOR 2 WK (STUDY DURATION: LIFETIME), Tumor Site: Type of Lesion: THYROID: TUMOR, LUNG: TUMOR) was “active; positive”, the carcinogen call (Species: MOUSE, Strain/Sex: SWISS/FEMALE, Route: GAVAGE, Dose: 0, 50 UG/G BW DISSOLVED IN PROPYLENE GLYCOL 1/WK FOR 53 WK (STUDY DURATION: LIFETIME), Tumor Site: Type of Lesion: LUNG: TUMOR, LIVER: TUMOR, GALLBLADDER: TUMOR, Tumor Site: Type of Lesion: LUNG: TUMOR, LIVER: TUMOR, GALLBLADDER: TUMOR) was “active; positive” and the carcinogen call (Species: MOUSE, Strain/Sex: SWISS/MALE, Route: GAVAGE, Dose: 0, 50 UG/G BW DISSOLVED IN PROPYLENE GLYCOL 1/WK FOR 2 WK (STUDY DURATION: LIFETIME), Tumor Site: Type of Lesion: LUNG: TUMOR, THYROID: TUMOR) was “active; positive”. For the same molecule, the carcinogen call (Species: MOUSE, Strain/Sex: SWISS/MALE, Route: GAVAGE, Dose: 0, 50 UG/G BW DISSOLVED IN PROPYLENE GLYCOL 1/WK FOR 53 WK (STUDY DURATION: LIFETIME), Tumor Site: Type of Lesion: LUNG: TUMOR, LIVER: TUMOR, GALLBLADDER: TUMOR, PREPUTIAL GLAND: TUMOR, Tumor Site: Type of Lesion: LUNG: TUMOR, LIVER: TUMOR, GALLBLADDER: TUMOR, PREPUTIAL GLAND: TUMOR) was “active; positive”.
In the case of C[C@@H]1C[C@H](C)CN(S(=O)(=O)c2ccc(Cl)c(C(=O)O)c2)C1, the carcinogen call (Species: RAT, Strain/Sex: F344/MALE, Route: ORAL, Dose: 0.2% IN DIET FOR 7.5 MO, THEN 0.1% FOR 4 MO, THEN 0.05% FOR 4 MO, Tumor Site: Type of Lesion: LIVER: HEPATOCELLULAR CARCINOMA) was “active; positive”.
c1ccc2c(c1)cnc1ccccc12 was tested, and the carcinogen call (Species: RAT, Strain/Sex: SPRAGUE-DAWLEY/FEMALE, Route: SUBCUTANEOUS, Dose: 0, 200 UMOL/KG IN DMSO INTO SUPRASCAPULAR AREA ON DAY 1 OF LIFE FOLLOWED BY 0, 100 UMOL 1/WK AT WK 2-7 THEN 0, 200 UMOL/, Dose: 0, 200 UMOL/KG IN DMSO INTO SUPRASCAPULAR AREA ON DAY 1 OF LIFE FOLLOWED BY 0, 100 UMOL 1/WK AT WK 2-7 THEN 0, 200 UMOL/) was “inactive; negative” and the carcinogen call (Species: RAT, Strain/Sex: SPRAGUE-DAWLEY/MALE, Route: SUBCUTANEOUS, Dose: 0, 200 UMOL/KG IN DMSO INTO SUPRASCAPULAR AREA ON DAY 1 OF LIFE FOLLOWED BY 0, 100 UMOL 1/WK AT WK 2-7 THEN 0, 200 UMOL/, Dose: 0, 200 UMOL/KG IN DMSO INTO SUPRASCAPULAR AREA ON DAY 1 OF LIFE FOLLOWED BY 0, 100 UMOL 1/WK AT WK 2-7 THEN 0, 200 UMOL/) was “inactive; negative”.
With CC(C)c1ccccc1 the carcinogen call (Species: Mouse, Strain/Sex: B5C3F1/ Female (50/Group), Route: Inhalation, Dose: 0, 125, 250, 500 ppm for 6 hr plus 12 min per d, 5 d/wk, 105 wk (Study duration: 105 wk), Dose: 0, 125, 250, 500 ppm for 6 hr plus 12 min per d, 5 d/wk, 105 wk (Study duration: 105 wk), Tumor Site: Type of Lesion: Lung: Alveolar/bronchiolar adenoma (1/50; 26/50; 36/50; 38/50), Alveolar/bronchiolar carcinoma (3/50, 16/50, 20/50, 34/, Tumor Site: Type of Lesion: Lung: Alveolar/bronchiolar adenoma (1/50; 26/50; 36/50; 38/50), Alveolar/bronchiolar carcinoma (3/50, 16/50, 20/50, 34/) was “active; positive. authors describe as clear evidence of carcinogenicity based on increas”, the carcinogen call (Species: Mouse, Strain/Sex: B5C3F1/ Male (50/Group), Route: Inhalation, Dose: 0, 250, 500, 1,000 ppm for 6 hr plus 12 min per d, 5 d/wk, 105 wk (Study duration: 105 wk), Dose: 0, 250, 500, 1,000 ppm for 6 hr plus 12 min per d, 5 d/wk, 105 wk (Study duration: 105 wk), Tumor Site: Type of Lesion: Lung: Alveolar/bronchiolar adenoma (13/50; 31/50; 29/50), Alveolar/bronchiolar carcinoma (9/50, 19/50, 32/50, 33/, Tumor Site: Type of Lesion: Lung: Alveolar/bronchiolar adenoma (13/50; 31/50; 29/50), Alveolar/bronchiolar carcinoma (9/50, 19/50, 32/50, 33/) was “active; positive. authors describe as clear evidence of carcinogenicity based on increas” and the carcinogen call (Species: Rat, Strain/Sex: F344/N / Female (50/Group), Route: Inhalation, Dose: 0, 250, 500, 1,000 ppm for 6 hr plus 12 min per d, 5 d/wk, 105 wk (Study duration: 105 wk), Dose: 0, 250, 500, 1,000 ppm for 6 hr plus 12 min per d, 5 d/wk, 105 wk (Study duration: 105 wk), Tumor Site: Type of Lesion: Nose (respiratory epithelium): Adenoma (0/50; 5/48; 4/50; 3/50)) was “inactive; negative. authors describe as some evidence of carcinogenicity”. For the same molecule, the carcinogen call (Species: Rat, Strain/Sex: F344/N / Male (50/Group), Route: Inhalation, Dose: 0, 250, 500, 1,000 ppm for 6 hr plus 12 min per d, 5 d/wk, 105 wk (Study duration: 105 wk), Dose: 0, 250, 500, 1,000 ppm for 6 hr plus 12 min per d, 5 d/wk, 105 wk (Study duration: 105 wk), Tumor Site: Type of Lesion: Nose (respiratory epithelium): Adenoma (0/50, 7/50, 18/49, 10/50, Renal tubule: Adenoma (1/50; 4/50; 5/50; 4/50), Renal, Tumor Site: Type of Lesion: Nose (respiratory epithelium): Adenoma (0/50, 7/50, 18/49, 10/50, Renal tubule: Adenoma (1/50; 4/50; 5/50; 4/50), Renal) was “active; positive. authors describe as clear evidence of carcinogenicity except that test”.
[Ni]#[Sb] was tested, and the carcinogen call (Species: RAT, Strain/Sex: F344/MALE, Route: INTRAMUSCULAR, Tumor Site: Type of Lesion: INJECTION SITE: SARCOMA) was “active; positive”.
In the case of CCCCCOC(=O)COc1cc(N2C(=O)C3=C(CCCC3)C2=O)c(F)cc1Cl, the carcinogen call (Species: Mouse, Strain/Sex: CD-1 (ICR)/Female (51/Group), Route: Oral, Dose: 0, 37.8, 368.1, 850.1 mg/kg/day of 94.7% flumiclorac pentyl in diet for 78 wk, study duration 78 wk, Dose: 0, 37.8, 368.1, 850.1 mg/kg/day of 94.7% flumiclorac pentyl in diet for 78 wk, study duration 78 wk) was “inactive; negative”, the carcinogen call (Species: Mouse, Strain/Sex: CD-1 (ICR)/Male (51/Group), Route: Oral, Dose: 0, 31.5, 307.9, 731.4 mg/kg/day of 94.7% flumiclorac pentyl in diet for 78 wk, study duration 78 wk, Dose: 0, 31.5, 307.9, 731.4 mg/kg/day of 94.7% flumiclorac pentyl in diet for 78 wk, study duration 78 wk) was “inactive; negative” and the carcinogen call (Species: Rat, Strain/Sex: Crj:CD(SD)/Female (50/Group), Route: Oral, Dose: 0, 4.3, 43.6, 443.8, 919.4 mg/kg/day of 94.4% flumiclorac pentyl in diet for 24 mo, study duration 24 mo, Dose: 0, 4.3, 43.6, 443.8, 919.4 mg/kg/day of 94.4% flumiclorac pentyl in diet for 24 mo, study duration 24 mo) was “inactive; negative”. The carcinogen call (Species: Rat, Strain/Sex: Crj:CD(SD)/Male (50/Group), Route: Oral, Dose: 0, 3.5, 35.4, 360.4, 744.9 mg/kg/day of 94.4% flumiclorac pentyl in diet for 24 mo, study duration 24 mo, Dose: 0, 3.5, 35.4, 360.4, 744.9 mg/kg/day of 94.4% flumiclorac pentyl in diet for 24 mo, study duration 24 mo) was “inactive; negative”.
O=S(=O)(c1ccc(Cl)cc1)c1ccc(Cl)cc1 was tested, and the carcinogen call (Species: MOUSE, Strain/Sex: B6C3F1/FEMALE, Route: ORAL, Dose: 0, 30, 100, 300 PPM IN DIET FOR 104-105 WK (STUDY DURATION: 104-105 WK), Dose: 0, 30, 100, 300 PPM IN DIET FOR 104-105 WK (STUDY DURATION: 104-105 WK)) was “inactive; negative”, the carcinogen call (Species: MOUSE, Strain/Sex: B6C3F1/MALE, Route: ORAL, Dose: 0, 30, 100, 300 PPM IN DIET FOR 104-105 WK (STUDY DURATION: 104-105 WK), Dose: 0, 30, 100, 300 PPM IN DIET FOR 104-105 WK (STUDY DURATION: 104-105 WK)) was “inactive; negative” and the carcinogen call (Species: RAT, Strain/Sex: F344/FEMALE, Route: ORAL, Dose: 0, 30, 100, 300 PPM IN DIET FOR 104-105 WK (STUDY DURATION: 104-105 WK), Dose: 0, 30, 100, 300 PPM IN DIET FOR 104-105 WK (STUDY DURATION: 104-105 WK)) was “inactive; negative”. For the same molecule, the carcinogen call (Species: RAT, Strain/Sex: F344/MALE, Route: ORAL, Dose: 0, 10, 30, 100, 300 PPM IN DIET FOR 104-105 WK (STUDY DURATION: 104-105 WK), Dose: 0, 10, 30, 100, 300 PPM IN DIET FOR 104-105 WK (STUDY DURATION: 104-105 WK)) was “inactive; negative”.
O=[N+]([O-])c1ccc2c3ccccc3c3cccc4ccc1c2c43 was tested, and the carcinogen call (Species: MOUSE, Strain/Sex: B6C3F1/MALE, Route: INTRAPERITONEAL, Dose: 0, 400 NMOL IN 35 µL DMSO ON DAYS 1 (1/7 TOTAL DOSE), 8 (2/7 TOTAL DOSE), AND 15 (4/7 TOTAL DOSE) AFTER BIRTH (STUDY DUR) was “inactive; negative”.
[N-]=[N+]=CC(=O)OC[C@H](N)C(=O)O was tested, and the carcinogen call (Species: RAT, Strain/Sex: WISTAR/MALE,FEMALE, Route: INTRAPERITONEAL, Dose: 5 MG/KG 1-2 TIMES PER WK FOR 6 MO, Tumor Site: Type of Lesion: KIDNEY: PAPILLARY EPITHELIAL TUMOR, CLEAR CELL TUMOR, TUBULAR ADENOMA, PANCREAS: ADENOCARCINOMA) was “active; positive”.
With C=C(C)[C@H]1CC=C(C)C(=O)C1 the carcinogen call (Species: MOUSE, Strain/Sex: B6C3F1/FEMALE, Route: GAVAGE, Dose: 0, 375, 750 MG/KG IN CORN OIL 5 D/WK FOR 103 WK (STUDY DURATION: 104 WK), Dose: 0, 375, 750 MG/KG IN CORN OIL 5 D/WK FOR 103 WK (STUDY DURATION: 104 WK)) was “inactive; negative” and the carcinogen call (Species: MOUSE, Strain/Sex: B6C3F1/MALE, Route: GAVAGE, Dose: 0, 375, 750 MG/KG IN CORN OIL 5 D/WK FOR 103 WK (STUDY DURATION: 104 WK), Dose: 0, 375, 750 MG/KG IN CORN OIL 5 D/WK FOR 103 WK (STUDY DURATION: 104 WK), Tumor Site: Type of Lesion: KIDNEY: TUBULAR CELL ADENOCARCINOMA) was “inactive; negative”.
